Values after ≈ are worked out from the molar mass of the structure shown.
Experiments:
Test in all cases: microbe, parasite or virus in culture
[1] = system: K. pneumoniae M6; assay type: cell-based, Klebsiella pneumoniae; settings: Klebsiella pneumoniae, M6, 20 h, read-out: Modal MIC
Protocol: (§1) Antimicrobial activity was evaluated against a panel of 18 pathogens consisting of eight Gram-negative strains (E. coli NCTC 12923, E. coli LEC001, Pseudomonas aeruginosa PAO1, P. aeruginosa NCTC 13437, Acinetobacter baumannii ATCC 17978, A. baumannii AYE, Klebsiella pneumoniae M6, K. pneumoniae NCTC 13368), four Gram-positive strains (Staphylococcus aureus ATCC 9144, S. aureus NCTC 13616, S. aureus USA300, S. aureus 1199B) and six fungi (Candida auris TDG 1912, C. albicans NCPF 8018, C. krusei NCPF 3876, C. tropicalis NCPF 8760, and C. parapsilosis NCPF 3209). Pathogens were grown in noncation adjusted Mueller Hinton broth (MHB, for bacteria) or Roswell Park Memorial Institute (RPMI 1640) + 2% glucose (for fungi) at 37 °C with 180 rpm shaking and maintained on solid media (tryptic soy agar for bacteria and Sabouraud dextrose agar for fungi). For an antibiogram, see Suppl.
(§2) The 46 peptides were serially diluted (128 to 2 μg/mL) in media down polypropylene 96-well plates. Bacteria or fungi, diluted from an overnight culture to an OD600 of 0.01, were added to the serially diluted peptides at a 1:1 ratio resulting in a starting cell density of ∼5 × 10^5 CFU/mL. Plates were incubated at 37 °C for 20 h, and the optical density was determined spectrophotometrically at 600 nm. Minimum inhibition concentrations (MICs) were determined from a minimum of three biological repeats and are reported in μg/mL as well as μM. […] The MIC50 or MIC90 is defined as the lowest peptide concentration that results in 50% or 90% growth inhibition over a 20 h treatment period, respectively.

[2] = system: K. pneumoniae NCTC 13368; assay type: cell-based, Klebsiella pneumoniae; settings: Klebsiella pneumoniae, NCTC13368, 20 h, read-out: Modal MIC
Protocol: as §1, §2

[3] = system: A. baumannii ATCC 17978; assay type: cell-based, Acinetobacter baumannii; settings: Acinetobacter baumannii, ATCC17978, 20 h, read-out: Modal MIC
Protocol: as §1, §2

[4] = system: A. baumannii AYE; assay type: cell-based, Acinetobacter baumannii; settings: Acinetobacter baumannii, 20 h, read-out: Modal MIC
Protocol: as §1, §2

[5] = system: S. aureus (MSSA) ATCC 9144; assay type: cell-based, Staphylococcus aureus; settings: Staphylococcus aureus, 20 h, read-out: Modal MIC
Protocol: as §1, §2

[6] = system: S. aureus (MRSA) 1199B; assay type: cell-based, Staphylococcus aureus; settings: Staphylococcus aureus, MRSA, 20 h, read-out: Modal MIC
Protocol: as §1, §2

[7] = system: S. aureus (MRSA) NCTC 13616; assay type: cell-based, Staphylococcus aureus; settings: Staphylococcus aureus, 20 h, read-out: Modal MIC
Protocol: as §1, §2

[8] = system: P. aeruginosa NCTC 13437; assay type: cell-based, Pseudomonas aeruginosa; settings: Pseudomonas aeruginosa, NCTC13437, 20 h, read-out: Modal MIC
Protocol: as §1, §2

[9] = system: P. aeruginosa PAO1; assay type: cell-based, Pseudomonas aeruginosa; settings: Pseudomonas aeruginosa, PAO1, 20 h, read-out: Modal MIC
Protocol: as §1, §2

[10] = system: E. coli LEC001; assay type: cell-based, Escherichia coli; settings: Escherichia coli, LEC001, 20 h, read-out: Modal MIC
Protocol: as §1, §2

[11] = system: E. coli NCTC 12923; assay type: cell-based, Escherichia coli; settings: Escherichia coli, NCTC12923, 20 h, read-out: Modal MIC
Protocol: as §1, §2

[12] = system: S. aureus (MRSA) USA300; assay type: cell-based, Staphylococcus aureus; settings: Staphylococcus aureus, 20 h, read-out: Modal MIC
Protocol: as §1, §2

SMILES | MIC [1] | MIC [2] | MIC [3] | MIC [4] | MIC [5] | MIC [6] | MIC [7] | MIC [8] | MIC [9] | MIC [10] | MIC [11] | MIC [12]
NC[C@H]1O[C@H](O[C@H]2[C@H](O)[C@@H](O[C@H]3O[C@H](CO)[C@@H](O)[C@H](N)[C@H]3O)[C@H](N)C[C@@H]2N)[C@H](N)C[C@@H]1O [Tobramycin, reference compound] | 8 µg/mL (≈ 17.1 µM) | 64 µg/mL (≈ 137 µM) | 4 µg/mL (≈ 8.56 µM) | 64 µg/mL (≈ 137 µM) | 0.25 to 0.5 µg/mL (≈ 0.535 to 1.07 µM) | 0.25 µg/mL (≈ 0.535 µM) | 0.5 µg/mL (≈ 1.07 µM) | 64 µg/mL (≈ 137 µM) | 2 µg/mL (≈ 4.28 µM) | 8 µg/mL (≈ 17.1 µM) | 16 µg/mL (≈ 34.2 µM) | –
O=C(O)c1cn(C2CC2)c2cc(N3CCNCC3)c(F)cc2c1=O [Ciprofloxacin, reference compound] | < 0.5 µg/mL | 0.5 µg/mL (≈ 1.51 µM) | 0.5 µg/mL (≈ 1.51 µM) | 128 µg/mL (≈ 386 µM) | 1 µg/mL (≈ 3.02 µM) | 8 µg/mL (≈ 24.1 µM) | 64 µg/mL (≈ 193 µM) | 64 µg/mL (≈ 193 µM) | 0.5 µg/mL (≈ 1.51 µM) | 32 µg/mL (≈ 96.6 µM) | ≤ 0.125 µg/mL | 64 µg/mL (≈ 193 µM)
CC(C)(O/N=C(\C(=O)N[C@@H]1C(=O)N2C(C(=O)[O-])=C(C[n+]3ccccc3)CS[C@H]12)c1csc(N)n1)C(=O)O [Ceftazidime, reference compound] | < 0.5 µg/mL | 512 µg/mL (≈ 937 µM) | < 0.5 µg/mL | > 128 µg/mL | 16 µg/mL (≈ 29.3 µM) | 8 µg/mL (≈ 14.6 µM) | 128 µg/mL (≈ 234 µM) | > 128 µg/mL | 1 µg/mL (≈ 1.83 µM) | 128 µg/mL (≈ 234 µM) | ≤ 0.125 µg/mL | 32 µg/mL (≈ 58.5 µM)
